Data from US20230250066A1, “HERBICIDAL CINNOLINE DERIVATIVES” (SYNGENTA CROP PROTECTION AG, priority 2020, published 2023).

How the values were obtained:
Format in all cases: in vivo
[1] = system: Ipomoea hederacea (IPOHE); experiment: Pre-emergence herbicidal test; settings: 1000 g/ha, evaluated after 13 days
[2] = system: Abutilon theophrasti (ABUTH); experiment: Pre-emergence herbicidal test; settings: 1000 g/ha, evaluated after 13 days
Zea mays (ZEAMX) [3] = experiment: Pre-emergence herbicidal test; settings: 1000 g/ha, evaluated after 13 days
Setaria faberi (SETFA) [4] = experiment: Pre-emergence herbicidal test; settings: 1000 g/ha, evaluated after 13 days
[5] = system: Echinochloa crus-galli (ECHCG); experiment: Pre-emergence herbicidal test; settings: 1000 g/ha, evaluated after 13 days
[6] = system: Amaranthus retoflexus (AMARE); experiment: Pre-emergence herbicidal test; settings: 1000 g/ha, evaluated after 13 days
[7] = system: Amaranthus retoflexus (AMARE); experiment: Post-emergence herbicidal test; settings: 1000 g/ha unless otherwise stated, evaluated after 13 days
Summary of the method: (§1)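 Pots sown in standard soil were kept in a glasshouse (24° C./16° C. day/night, 14 hours light, 65% humidity) and sprayed at 1000 g/ha unless otherwise stated in acetone/water (50:50) with 0.5% Tween 20. Percentage damage was scored after 13 days on a 0–5 scale.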

[8] = system: Ipomoea hederacea (IPOHE); experiment: Post-emergence herbicidal test; settings: 1000 g/ha unless otherwise stated, evaluated after 13 days
Summary of the method: as §1

Setaria faberi (SETFA) [9] = experiment: Post-emergence herbicidal test; settings: 1000 g/ha unless otherwise stated, evaluated after 13 days
Summary of the method: as §1

[10] = system: Echinochloa crus-galli (ECHCG); experiment: Post-emergence herbicidal test; settings: 1000 g/ha unless otherwise stated, evaluated after 13 days
Summary of the method: as §1

Zea mays (ZEAMX) [11] = experiment: Post-emergence herbicidal test; settings: 1000 g/ha unless otherwise stated, evaluated after 13 days
Summary of the method: as §1

[12] = system: Abutilon theophrasti (ABUTH); experiment: Post-emergence herbicidal test; settings: 1000 g/ha unless otherwise stated, evaluated after 13 days
Summary of the method: as §1

Row | SMILES | percentage damage caused to the plant, five-point scale, IPOHE [1] | percentage damage caused to the plant, five-point scale, ABUTH [2] | percentage damage caused to the plant, five-point scale, ZEAMX (Zea mays (ZEAMX) [3]) | percentage damage caused to the plant, five-point scale, SETFA (Setaria faberi (SETFA) [4]) | percentage damage caused to the plant, five-point scale, ECHCG [5] | percentage damage caused to the plant, five-point scale, AMARE [6] | percentage damage caused to the plant, AMARE (five-point scale) [7] | percentage damage caused to the plant, IPOHE (five-point scale) [8] | percentage damage caused to the plant, SETFA (five-point scale) (Setaria faberi (SETFA) [9]) | percentage damage caused to the plant, ECHCG (five-point scale) [10] | percentage damage caused to the plant, ZEAMX (five-point scale) (Zea mays (ZEAMX) [11]) | percentage damage caused to the plant, ABUTH (five-point scale) [12]
1 | CCS(=O)(=O)c1cccc2c1c(=O)c(C(=O)O)nn2-c1ccc(OC(F)(F)F)cc1 [Compound P27, 5-ethylsulfonyl-4-oxo-1-[4-(trifluoromethoxy)phenyl]cinnoline-3-carboxylic acid] | 0 (0=0%) | 0 (0=0%) | 1 (1=10-20%) | 3 (3=41-60%) | 0 (0=0%) | 0 (0=0%) | 0 (0=0%) | 0 (0=0%) | 2 (2=21-40%) | 2 (2=21-40%) | 1 (1=10-20%) | 1 (1=10-20%)
2 | CCOC(=O)c1nn(-c2ccc(OC(F)(F)F)cc2)c2cccc([S+](C)[O-])c2c1=O (stereo not drawn) [Compound P28, ethyl 5-methylsulfinyl-4-oxo-1-[4-(trifluoromethoxy)phenyl]cinnoline-3-carboxylate] | 0 (0=0%) | 0 (0=0%) | 0 (0=0%) | 0 (0=0%) | 0 (0=0%) | 0 (0=0%) | 1 (1=10-20%) | 0 (0=0%) | 1 (1=10-20%) | 0 (0=0%) | 0 (0=0%) | 1 (1=10-20%)
3 | O=C(O)c1nn(-c2ccc(OC(F)(F)F)cc2)c2cccc(S(=O)(=O)C3CC3)c2c1=O [Compound P29, 5-cyclopropylsulfonyl-4-oxo-1-[4-(trifluoromethoxy)phenyl]cinnoline-3-carboxylic acid] | 0 (0=0%) | 0 (0=0%) | 0 (0=0%) | 0 (0=0%) | 0 (0=0%) | 0 (0=0%) | 0 (0=0%) | 0 (0=0%) | 0 (0=0%) | 0 (0=0%) | 0 (0=0%) | 0 (0=0%)
4 | O=C(O)c1nn(-c2ccc(OC(F)(F)F)cc2)c2cccc(SC3CC3)c2c1=O [Compound P30, 5-cyclopropylsulfanyl-4-oxo-1-[4-(trifluoromethoxy)phenyl]cinnoline-3-carboxylic acid] | 0 (0=0%) | 0 (0=0%) | 0 (0=0%) | 0 (0=0%) | 0 (0=0%) | 0 (0=0%) | 1 (1=10-20%) | 1 (1=10-20%) | 1 (1=10-20%) | 1 (1=10-20%) | 1 (1=10-20%) | 1 (1=10-20%)
5 | O=C(O)c1nn(-c2ccc(OC(F)(F)F)cc2)c2cccc([S+]([O-])C3CC3)c2c1=O (stereo not drawn) [Compound P31, 5-cyclopropylsulfinyl-4-oxo-1-[4-(trifluoromethoxy)phenyl]cinnoline-3-carboxylic acid] | 0 (0=0%) | 0 (0=0%) | 0 (0=0%) | 0 (0=0%) | 0 (0=0%) | 0 (0=0%) | 0 (0=0%) | 0 (0=0%) | 0 (0=0%) | 0 (0=0%) | 0 (0=0%) | 0 (0=0%)
6 | CCOC(=O)c1nn(-c2ccc(OC(F)(F)F)cc2)c2cccc([S+]([O-])C3CC3)c2c1=O (stereo not drawn) [Compound P32, ethyl 5-cyclopropylsulfinyl-4-oxo-1-[4-(trifluoromethoxy)phenyl]cinnoline-3-carboxylate] | 0 (0=0%) | 0 (0=0%) | 0 (0=0%) | 2 (2=21-40%) | 1 (1=10-20%) | 0 (0=0%) | 0 (0=0%) | 0 (0=0%) | 1 (1=10-20%) | 1 (1=10-20%) | 1 (1=10-20%) | 0 (0=0%)
7 | CCOC(=O)c1nn(-c2ccc(OC(F)(F)F)cc2)c2cccc(SC3CC3)c2c1=O [Compound P33, ethyl 5-cyclopropylsulfanyl-4-oxo-1-[4-(trifluoromethoxy)phenyl]cinnoline-3-carboxylate] | 0 (0=0%) | 0 (0=0%) | 0 (0=0%) | 2 (2=21-40%) | 1 (1=10-20%) | 0 (0=0%) | 0 (0=0%) | 0 (0=0%) | 0 (0=0%) | 0 (0=0%) | 0 (0=0%) | 1 (1=10-20%)
8 | CCOC(=O)c1nn(-c2ccc(OC(F)(F)F)cc2)c2cccc(S(=O)(=O)C3CC3)c2c1=O [Compound P34, ethyl 5-cyclopropylsulfonyl-4-oxo-1-[4-(trifluoromethoxy)phenyl]cinnoline-3-carboxylate] | 0 (0=0%) | 0 (0=0%) | 0 (0=0%) | 0 (0=0%) | 0 (0=0%) | 0 (0=0%) | 0 (0=0%) | 0 (0=0%) | 0 (0=0%) | 0 (0=0%) | 0 (0=0%) | 0 (0=0%)
9 | O=C(O)c1nn(-c2ccc(OC(F)(F)F)cc2)c2cccc(S(=O)(=O)CC(F)(F)F)c2c1=O [Compound P35, 4-oxo-5-(2,2,2-trifluoroethylsulfonyl)-1-[4-(trifluoromethoxy)phenyl]cinnoline-3-carboxylic acid] | 0 (0=0%) | 1 (1=10-20%) | 1 (1=10-20%) | 0 (0=0%) | 0 (0=0%) | 0 (0=0%) | 1 (1=10-20%) | 0 (0=0%) | 2 (2=21-40%) | 1 (1=10-20%) | 1 (1=10-20%) | 1 (1=10-20%)
